Experimental data reported in PubChem BioAssay (NCI).
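Method: 48-hour compound exposure of cells in 96-well plates, five concentrations, linear interpolation of endpoints. GI50 marks 50% less growth. TGI is the concentration that stops growth completely.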

Tests used:
Assay in all cases: NCI-60 cell line screen, 48 h
CCRF-CEM leukemia = system: CCRF-CEM leukemia
EKVX NSCLC = system: EKVX NSCLC
HCT-15 colon = system: HCT-15 colon
HL-60(TB) leukemia = system: HL-60(TB) leukemia
HOP-62 NSCLC = system: HOP-62 NSCLC
HT29 colon = system: HT29 colon
KM12 colon = system: KM12 colon
M14 melanoma = system: M14 melanoma
MALME-3M melanoma = system: MALME-3M melanoma
MDA-MB-435 = system: MDA-MB-435
MDA-N = system: MDA-N
NCI/ADR-RES ovarian = system: NCI/ADR-RES ovarian
OVCAR-4 ovarian = system: OVCAR-4 ovarian
OVCAR-8 ovarian = system: OVCAR-8 ovarian
RXF 393 renal = system: RXF 393 renal
SK-MEL-28 melanoma = system: SK-MEL-28 melanoma
U251 CNS = system: U251 CNS
BT-549 breast = system: BT-549 breast

Structure (SMILES)	TGI (CCRF-CEM leukemia)	TGI (EKVX NSCLC)	TGI (HCT-15 colon)	TGI (HL-60(TB) leukemia)	TGI (HOP-62 NSCLC)	TGI (HT29 colon)	TGI (KM12 colon)	TGI (M14 melanoma)	TGI (MALME-3M melanoma)	TGI (MDA-MB-435)	TGI (MDA-N)	TGI (NCI/ADR-RES ovarian)	TGI (OVCAR-4 ovarian)	TGI (OVCAR-8 ovarian)	TGI (RXF 393 renal)	TGI (SK-MEL-28 melanoma)	TGI (U251 CNS)	TGI (BT-549 breast)	GI50 (RXF 393 renal)	GI50 (EKVX NSCLC)
C/C=C/C(=O)N1C(=O)OC[C@@H]1c1ccccc1	44.8 µM	35 µM	53.8 µM	43 µM	41.1 µM	33.7 µM	29.3 µM	36.6 µM	39.7 µM	70 µM	43.8 µM	44.4 µM	45.3 µM	38.5 µM	37.2 µM	45.5 µM	48.5 µM	–	–	–
Cc1ccc(S(=O)(=O)N2CCCC2C(=O)O[C@H]2CC[C@H]3CC=C[C@H]32)cc1 (some centres undefined)	> 100 µM	> 100 µM	–	–	> 100 µM	> 100 µM	> 100 µM	> 100 µM	> 100 µM	> 100 µM	> 100 µM	77.2 µM	> 100 µM	> 100 µM	–	96.7 µM	> 100 µM	> 100 µM	–	–
CC(=O)OC1CC[C@]2(C)C3CC[C@@]4(C)C(CCC4[C@H](C)CCCC(C)C)[C@@H]3CCC2(Br)C1 (some centres undefined)	27.3 µM	> 50 µM	33.2 µM	28.3 µM	> 50 µM	> 50 µM	> 50 µM	> 50 µM	23.2 µM	19.4 µM	> 50 µM	> 50 µM	24 µM	26.5 µM	21.9 µM	16.2 µM	> 50 µM	–	–	–
O=C(O)CCCOc1cc(-c2ccccc2F)nc2cc3c(cc12)OCO3	9.86 µM	> 100 µM	> 100 µM	–	> 100 µM	> 100 µM	> 100 µM	> 100 µM	> 100 µM	> 100 µM	4.45 µM	> 100 µM	> 100 µM	> 100 µM	> 100 µM	> 100 µM	> 100 µM	> 100 µM	7.68 µM	–
CN1CCC23c4c5ccc(O)c4OC2c2[nH]c4ccccc4c2CC3(O)C1C5 (centres undefined)	46.9 µM	> 100 µM	> 100 µM	–	> 100 µM	> 100 µM	> 100 µM	34.8 µM	36.8 µM	36.9 µM	44.9 µM	> 100 µM	> 100 µM	> 100 µM	66.1 µM	28.4 µM	52.9 µM	> 100 µM	–	–
CCOC(=O)c1cnc(-n2[nH]c3c(c2=O)CCCC3)[nH]c1=O	> 100 µM	> 100 µM	> 100 µM	> 100 µM	–	> 100 µM	> 100 µM	> 100 µM	> 100 µM	> 100 µM	> 100 µM	> 100 µM	> 100 µM	> 100 µM	–	> 100 µM	> 100 µM	> 100 µM	–	–
NNc1[nH]c(=S)[nH]c1C(N)=O	> 100 µM	> 100 µM	> 100 µM	> 100 µM	> 100 µM	> 100 µM	> 100 µM	> 100 µM	> 100 µM	> 100 µM	–	> 100 µM	> 100 µM	> 100 µM	> 100 µM	> 100 µM	> 100 µM	> 100 µM	–	–
CC(C)NCCC(O)c1cc2ccccc2o1 (centres undefined)	–	> 100 µM	> 100 µM	–	> 100 µM	> 100 µM	> 100 µM	> 100 µM	> 100 µM	> 100 µM	> 100 µM	> 100 µM	> 100 µM	> 100 µM	> 100 µM	> 100 µM	> 100 µM	> 100 µM	–	–
CC#CCCN(CC#N)Cc1ccccc1	> 100 µM	> 100 µM	> 100 µM	> 100 µM	> 100 µM	> 100 µM	> 100 µM	> 100 µM	> 100 µM	> 100 µM	> 100 µM	> 100 µM	> 100 µM	> 100 µM	> 100 µM	> 100 µM	> 100 µM	–	–	–
O=C(/C=C/c1ccc(O)c(O)c1O)OCCc1ccccc1	–	> 100 µM	51.9 µM	48.8 µM	55.5 µM	53.4 µM	46.4 µM	37.9 µM	> 100 µM	36.2 µM	34 µM	70.7 µM	29.5 µM	–	98.2 µM	> 100 µM	80.6 µM	–	–	–
CN(C)C(=O)Oc1ccc(-c2cn3cc(NC(=O)c4ccccc4)ccc3n2)cc1	> 100 µM	> 100 µM	> 100 µM	–	> 100 µM	> 100 µM	> 100 µM	> 100 µM	–	> 100 µM	> 100 µM	> 100 µM	> 100 µM	> 100 µM	> 100 µM	> 100 µM	> 100 µM	> 100 µM	–	–
COc1cc2c(cc1OC)C(N)CC2=O (centres undefined)	> 100 µM	> 100 µM	> 100 µM	–	> 100 µM	> 100 µM	> 100 µM	> 100 µM	–	> 100 µM	–	> 100 µM	> 100 µM	> 100 µM	> 100 µM	> 100 µM	> 100 µM	> 100 µM	–	–
C=C1C(=O)O[C@H]2[C@H]1CC(=O)/C(C)=C/CC[C@@]1(C)O[C@@H]21	0.394 µM	24.8 µM	1.56 µM	–	22 µM	4.53 µM	7.09 µM	1.57 µM	3.48 µM	5.43 µM	1.27 µM	10.8 µM	12.9 µM	7.47 µM	1.08 µM	1.3 µM	13.6 µM	2 µM	–	6.06 µM
O=C(c1cccc(C(=O)c2ccc3c4c(cccc24)C(=O)N(c2ccccc2)C3=O)c1)c1ccc2c3c(cccc13)C(=O)N(c1ccccc1)C2=O	–	> 100 µM	> 100 µM	–	> 100 µM	> 100 µM	> 100 µM	> 100 µM	> 100 µM	> 100 µM	> 100 µM	> 100 µM	> 100 µM	> 100 µM	> 100 µM	> 100 µM	> 100 µM	> 100 µM	–	–
O=C(CCN1CCOCC1)Nc1ccc2sc3ccccc3c(=O)c2n1	> 100 µM	> 100 µM	> 100 µM	> 100 µM	> 100 µM	> 100 µM	> 100 µM	> 100 µM	85.2 µM	> 100 µM	> 100 µM	> 100 µM	> 100 µM	> 100 µM	–	> 100 µM	> 100 µM	> 100 µM	–	–
Cc1c(C)c(S(=O)(=O)N(CCCN)OCCCN)c(C)c2c1OC(C)(C)C2	90 µM	31.3 µM	> 100 µM	–	> 100 µM	> 100 µM	38.9 µM	34.1 µM	42.1 µM	> 100 µM	33.6 µM	> 100 µM	> 100 µM	> 100 µM	48.9 µM	> 100 µM	38.3 µM	> 100 µM	–	–
N#CC(Cc1ccccc1Br)N(CCC1=CCCCC1)C(c1ccccc1)c1ccccc1 (centres undefined)	–	> 100 µM	> 100 µM	–	> 100 µM	> 100 µM	> 100 µM	> 100 µM	> 100 µM	> 100 µM	> 100 µM	> 100 µM	> 100 µM	> 100 µM	> 100 µM	> 100 µM	> 100 µM	> 100 µM	–	–
C=CC[C@@H]1C(=O)[C@@]2(O[Si](C(C)C)(C(C)C)C(C)C)CC[C@@H]1C[C@H]2NC(=O)OCC(Cl)(Cl)Cl	> 100 µM	–	> 100 µM	–	> 100 µM	> 100 µM	> 100 µM	> 100 µM	–	> 100 µM	> 100 µM	> 100 µM	> 100 µM	> 100 µM	–	> 100 µM	> 100 µM	–	–	–
C=C1CN(Cc2ccccc2)[C@@H]2CCCCC[C@H](C#N)[C@H]12	> 100 µM	> 100 µM	> 100 µM	–	> 100 µM	> 100 µM	> 100 µM	> 100 µM	> 100 µM	> 100 µM	> 100 µM	> 100 µM	> 100 µM	> 100 µM	> 100 µM	> 100 µM	> 100 µM	> 100 µM	–	–
O=c1[nH]n(Cc2ccccn2)c2ccc([N+](=O)[O-])cc12	> 100 µM	> 100 µM	> 100 µM	> 100 µM	> 100 µM	> 100 µM	> 100 µM	> 100 µM	> 100 µM	–	> 100 µM	> 100 µM	> 100 µM	> 100 µM	> 100 µM	> 100 µM	> 100 µM	–	–	–
CCCCCCCN1C(=O)C(O)(c2ccc(C3(O)C(=O)N(CCCCCCC)c4ccccc43)s2)c2ccccc21 (centres undefined)	27 µM	–	4.42 µM	3.42 µM	3.41 µM	3.28 µM	3.36 µM	3.69 µM	–	3.87 µM	4.06 µM	–	3.77 µM	4.41 µM	–	3.98 µM	3.17 µM	4.12 µM	–	–
O=C(Nc1ccccc1F)c1cc2ccc(O)cc2oc1=Nc1cccc(C(F)(F)F)c1	4.79 µM	10.6 µM	10.9 µM	4.84 µM	53.7 µM	> 100 µM	26.8 µM	26 µM	34.9 µM	22.7 µM	> 100 µM	9.93 µM	12.9 µM	5.27 µM	–	40.7 µM	19.3 µM	8.42 µM	–	–
COc1c(O)c2c(=O)cc(OC)c3c4c(OC)cc(=O)c5c(O)c(OC)c6c(c(c1C(C(C)=O)C6C(C)O)c23)c54 (centres undefined)	1.16 µM	4.55 µM	2.25 µM	0.415 µM	0.632 µM	0.267 µM	1.07 µM	–	2.57 µM	3.1 µM	2.34 µM	1.58 µM	–	0.71 µM	–	3.3 µM	0.603 µM	–	–	–
CC1OC(OC2C(O)COC(OC3C(C)OC(OC4C(OC(=O)[C@]56CCC(C)(C)C[C@@H]5C5=CCC7[C@@]8(C)C[C@H](O)[C@H](OC9OC(CO)C(O)C(OC%10OC(CO)C(O)C(O)C%10O)C9O)[C@@](C)(CO)[C@@H]8CC[C@@]7(C)[C@]5(C)CC6)OCC(O)C4O)C(O)C3O)C2O)C(O)C(O)C1O (some centres undefined)	32.6 µM	26.1 µM	38.7 µM	–	28.8 µM	31.5 µM	55.2 µM	26.3 µM	30.8 µM	42.1 µM	32 µM	31.9 µM	34.4 µM	32.8 µM	27.9 µM	22.9 µM	32.8 µM	40.7 µM	–	–
COc1ccc(Cc2nccc3cc(OC)c(OC)cc23)cc1OC	> 100 µM	> 100 µM	> 100 µM	> 100 µM	> 100 µM	> 100 µM	> 100 µM	> 100 µM	–	> 100 µM	> 100 µM	> 100 µM	> 100 µM	> 100 µM	–	> 100 µM	> 100 µM	> 100 µM	–	–
CCOC(=O)/C=C1\c2ccccc2C(=O)N1CC(=O)OCC	> 100 µM	> 100 µM	> 100 µM	–	> 100 µM	–	> 100 µM	> 100 µM	> 100 µM	> 100 µM	> 100 µM	> 100 µM	> 100 µM	> 100 µM	> 100 µM	> 100 µM	> 100 µM	> 100 µM	–	–
COc1ccc([C@@]23OC[C@@H]4[C@@H](OC[C@@H]42)c2cc(OC)c(OC)cc23)cc1OC	–	> 100 µM	> 100 µM	> 100 µM	> 100 µM	–	> 100 µM	> 100 µM	> 100 µM	> 100 µM	–	> 100 µM	> 100 µM	–	> 100 µM	> 100 µM	> 100 µM	> 100 µM	–	–
